According to the supplement of paper PMC10307832:

Experiments:
Test in all cases: relative viability (nuclei count vs DMSO), 5 days (fraction); higher = more cells survive
Pemetrexed + Olaparib = compound: Nc1nc2[nH]cc(CCc3ccc(C(=O)N[C@@H](CCC(=O)O)C(=O)O)cc3)c2c(=O)[nH]1 [Pemetrexed] + O=C(c1cc(Cc2n[nH]c(=O)c3ccccc23)ccc1F)N1CCN(C(=O)C2CC2)CC1 [Olaparib] (partner 8 µM)
How it was run: (§1)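 Lung cancer cell lines were seeded in 1536-well plates and dosed by pin tool the next day, with either a single drug or a fixed anchor-drug dose combined with five library-drug doses (not always all listed) spaced in √10 steps. Five days later, one step fixed the cells and stained their nuclei (final 0.05% Triton X-100, 1% formaldehyde, 1 ug/ml Hoechst), and nuclei were counted on 4× images. Relative viability is the nuclei count in treated wells divided by the count in vehicle wells, and each value is the median of duplicate plates.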

Idelalisib + AZD7762 = compound: CC[C@H](Nc1ncnc2[nH]cnc12)c1nc2cccc(F)c2c(=O)n1-c1ccccc1 [Idelalisib] + NC(=O)Nc1cc(-c2cccc(F)c2)sc1C(=O)N[C@H]1CCCNC1 [AZD7762] (partner 0.2 µM)
How it was run: as §1

Pemetrexed + Pictilisib = compound: Nc1nc2[nH]cc(CCc3ccc(C(=O)N[C@@H](CCC(=O)O)C(=O)O)cc3)c2c(=O)[nH]1 [Pemetrexed] + CS(=O)(=O)N1CCN(Cc2cc3nc(-c4cccc5[nH]ncc45)nc(N4CCOCC4)c3s2)CC1 [Pictilisib] (partner 1 µM)
How it was run: as §1

Idelalisib + Bortezomib = compound: CC[C@H](Nc1ncnc2[nH]cnc12)c1nc2cccc(F)c2c(=O)n1-c1ccccc1 [Idelalisib] + CC(C)C[C@H](NC(=O)[C@H](Cc1ccccc1)NC(=O)c1cnccn1)B(O)O [Bortezomib] (partner 0.002 µM)
How it was run: as §1

Cell Line	relative viability (Pemetrexed + Olaparib; first compound 0.002 µM)	relative viability (Pemetrexed + Olaparib; first compound 0.006325 µM)	relative viability (Pemetrexed + Olaparib; first compound 0.02 µM)	relative viability (Pemetrexed + Olaparib; first compound 0.06325 µM)	relative viability (Pemetrexed + Olaparib; first compound 0.2 µM)	relative viability (Idelalisib + AZD7762; first compound 0.04 µM)	relative viability (Idelalisib + AZD7762; first compound 0.1265 µM)	relative viability (Idelalisib + AZD7762; first compound 0.4 µM)	relative viability (Idelalisib + AZD7762; first compound 1.265 µM)	relative viability (Idelalisib + AZD7762; first compound 4 µM)	relative viability (Pemetrexed + Pictilisib; first compound 0.002 µM)	relative viability (Pemetrexed + Pictilisib; first compound 0.006325 µM)	relative viability (Pemetrexed + Pictilisib; first compound 0.02 µM)	relative viability (Pemetrexed + Pictilisib; first compound 0.06325 µM)	relative viability (Pemetrexed + Pictilisib; first compound 0.2 µM)	relative viability (Idelalisib + Bortezomib; first compound 0.04 µM)	relative viability (Idelalisib + Bortezomib; first compound 0.1265 µM)	relative viability (Idelalisib + Bortezomib; first compound 1.265 µM)	relative viability (Idelalisib + Bortezomib; first compound 4 µM)	relative viability (Idelalisib + Bortezomib; first compound 0.4 µM)
LCLC-97TM1	0.442	0.327	0.457	0.426	0.411	0.199	0.382	0.274	0.107	0.339	0.163	0.159	0.173	0.133	0.115	0.357	0.76	0.569	0.835	–
A-427	0.758	0.765	0.775	0.759	0.711	0.773	0.748	0.66	0.442	0.624	0.646	0.759	0.804	0.746	0.642	1.03	0.903	1.05	0.913	0.883
ABC-1	0.839	0.867	0.985	0.875	0.865	0.904	0.738	0.783	0.729	0.864	0.947	0.662	0.954	0.826	0.706	0.327	0.243	0.326	0.288	0.309
NCI-H460	0.237	0.35	0.484	0.437	0.116	0.639	0.611	0.615	0.2	0.682	0.233	0.396	0.383	0.313	0.121	0.782	1.03	1.23	1.04	1.1
NCI-H23	0.318	0.335	0.331	0.32	0.319	0.265	0.218	0.247	0.195	0.235	0.395	0.416	0.538	0.516	0.408	1.05	0.986	1.07	0.959	0.771
LOU-NH91	0.864	0.886	0.93	0.819	0.455	0.833	0.807	0.686	0.638	0.673	0.511	0.488	0.551	0.453	0.392	0.483	0.39	0.437	0.472	0.512
NCI-H2126	0.861	0.965	0.886	0.889	0.777	0.961	1.06	0.94	1.02	1	0.451	0.479	0.494	0.487	0.436	1.14	1.15	1.14	1.21	1.13
ChaGo-K-1	0.483	0.423	0.464	0.383	0.259	0.943	0.885	0.826	0.606	0.841	0.609	0.793	0.597	0.224	0.28	1.09	0.945	1.04	1.17	1.01
NCI-H1437	0.619	0.625	0.656	0.54	0.385	1.09	1.03	1.06	0.863	1.15	0.297	0.422	0.389	0.267	0.193	0.567	0.532	0.833	0.37	0.452
NCI-H838	0.755	0.75	0.837	0.471	0.216	0.902	0.935	0.907	0.69	0.892	0.443	0.392	0.532	0.267	0.248	0.835	0.95	1.03	0.635	0.476
NCI-H1755	0.777	0.857	0.875	0.89	0.781	0.386	0.437	0.376	0.31	0.381	0.327	0.416	0.532	0.45	0.318	0.931	0.939	1.05	0.85	0.937
NCI-H1915	0.243	0.277	0.274	0.238	0.274	0.766	0.687	0.643	0.552	0.68	0.786	0.933	1.13	0.929	0.957	0.968	1.03	1.04	0.997	0.928
NCI-H2347	0.55	0.527	0.678	0.517	0.499	0.699	0.925	0.69	0.466	0.478	0.392	0.545	0.601	0.525	0.606	0.971	0.982	0.774	0.799	0.971
HARA	0.758	0.859	0.834	0.606	0.182	0.309	0.301	–	0.169	0.392	0.465	0.374	0.436	0.235	0.204	1.27	1.02	1.2	1.1	1.08
NCI-H2085	0.755	0.74	0.802	0.806	0.789	0.951	0.979	0.887	0.436	0.471	0.503	0.425	0.506	0.548	0.507	0.916	1.08	1.06	0.848	0.983
NCI-H650	0.382	0.403	–	0.302	0.378	1.48	1.04	0.79	0.378	1.08	0.831	0.756	0.861	0.786	0.851	0.693	0.998	1.13	0.662	0.735

Cell Line	relative viability (Pemetrexed + Olaparib; first compound 0.002 µM)	relative viability (Pemetrexed + Olaparib; first compound 0.006325 µM)	relative viability (Pemetrexed + Olaparib; first compound 0.02 µM)	relative viability (Pemetrexed + Olaparib; first compound 0.06325 µM)	relative viability (Pemetrexed + Olaparib; first compound 0.2 µM)	relative viability (Idelalisib + AZD7762; first compound 0.04 µM)	relative viability (Idelalisib + AZD7762; first compound 0.1265 µM)	relative viability (Idelalisib + AZD7762; first compound 0.4 µM)	relative viability (Idelalisib + AZD7762; first compound 1.265 µM)	relative viability (Idelalisib + AZD7762; first compound 4 µM)	relative viability (Pemetrexed + Pictilisib; first compound 0.002 µM)	relative viability (Pemetrexed + Pictilisib; first compound 0.006325 µM)	relative viability (Pemetrexed + Pictilisib; first compound 0.02 µM)	relative viability (Pemetrexed + Pictilisib; first compound 0.06325 µM)	relative viability (Pemetrexed + Pictilisib; first compound 0.2 µM)	relative viability (Idelalisib + Bortezomib; first compound 0.04 µM)	relative viability (Idelalisib + Bortezomib; first compound 0.1265 µM)	relative viability (Idelalisib + Bortezomib; first compound 1.265 µM)	relative viability (Idelalisib + Bortezomib; first compound 4 µM)	relative viability (Idelalisib + Bortezomib; first compound 0.4 µM)
NCI-H727	0.617	0.654	0.692	0.795	0.689	0.625	0.574	0.578	0.379	0.704	0.398	0.399	0.415	0.378	0.369	0.848	1.21	1.22	0.791	0.632
NCI-H1993	0.885	1.02	1.21	1.06	0.798	0.647	0.839	0.652	0.714	0.623	0.899	0.97	0.819	0.743	0.882	1.14	1.22	0.976	0.771	0.852
EMC-BAC-2	0.455	0.458	0.5	0.493	0.497	1.08	1.1	1.02	1.11	1.08	0.534	0.465	0.564	0.579	0.421	1.12	1.15	1.13	1.04	1.05
NCI-H1703	0.485	0.379	0.671	0.381	0.385	–	0.124	–	0.0966	0.126	–	0.248	0.29	0.287	0.264	0.305	0.404	0.332	0.161	0.246
NCI-H2087	0.595	0.585	0.626	0.534	0.539	1.34	1.33	1.32	1.19	1.32	0.692	0.79	0.938	0.67	0.581	0.765	1.01	1.07	0.671	0.787
NCI-H441	0.458	0.534	0.56	0.567	0.252	1.31	1.08	–	0.715	1.32	0.46	0.463	0.595	0.322	0.268	0.406	0.453	0.608	0.37	–
LXF-289	1.07	1.04	1.1	1.03	0.976	1.16	1.09	1.15	0.838	1.16	0.756	0.759	0.844	0.827	0.701	1.08	0.925	1.05	1.04	0.995
PC-3 [JPC-3]	1.03	1.18	1.19	1.14	1.08	0.916	0.889	0.806	0.707	0.569	0.625	0.687	0.821	0.743	0.663	0.885	0.837	0.806	0.809	0.835
HCC-366	0.345	0.432	0.385	0.36	0.332	0.248	0.317	0.242	0.106	0.249	0.193	0.133	0.151	0.127	0.14	1	1.11	1.03	0.931	1
NCI-H1651	0.175	0.191	0.205	0.193	0.184	0.522	0.456	0.46	0.245	0.519	0.627	0.49	0.658	0.554	0.556	1	0.913	1.01	1.02	0.939
NCI-H1355	0.676	0.709	0.731	0.754	0.691	0.817	0.786	0.625	0.523	0.703	0.294	0.383	0.377	0.481	0.428	1.26	1.29	1.23	1.17	0.987
LC-2-ad	0.712	0.711	0.683	0.612	0.312	0.826	0.86	0.734	0.782	0.632	0.402	0.306	0.428	0.211	0.123	1.02	0.971	1.11	0.992	0.938
HCC-827	0.666	0.614	0.618	0.633	0.416	0.216	0.212	0.31	0.153	0.199	0.74	0.973	0.929	0.95	0.664	1.1	0.99	1.17	1.07	1.03
NCI-H3122	0.592	0.636	0.678	0.567	0.513	0.949	1.01	1.01	0.785	0.998	0.6	0.584	0.628	0.526	0.338	1.03	1.04	1.09	1.04	1.09
BEN	1.07	1.01	1.05	0.97	0.891	0.748	0.739	0.765	0.584	0.664	0.53	0.564	0.591	0.539	0.525	0.985	0.709	0.803	0.732	0.756
NCI-H647	0.585	0.67	0.765	0.465	0.163	0.546	0.631	0.409	0.198	0.397	0.283	0.449	0.355	0.382	0.202	0.998	1.13	0.905	0.737	0.813
